Like-named read-outs stand apart in the source and are kept apart here.
Experiments:
U-251 = assay: MTT cytotoxicity assay, U-251; type: cell-based; details: Homo sapiens, mean ± SEM of three independent experiments in triplicate, read-out: IC50 Brain Cancer U-251
Description: (§1) A panel of cancer cell lines, including breast (MDA-MB-231, BT20), brain (U251), and colon (HCT116), as well as a normal cell line (human mammary epithelial cells: HMECs), were grown as adherent monolayers in flasks with Dulbecco’s Modified Eagle Medium (DMEM), supplemented with 10% fetal bovine serum (FBS) and 1% penicillin and streptomycin in a humidified incubator with 5% CO2 at 37 °C.
(§2) The (3-(4,5-dimethylthiazol-2-yl)-2,5-diphenyltetrazolium bromide) (MTT) assay was used to determine the cytotoxicity of the 15 chrysin derivatives in the above-mentioned cell lines. Briefly, cells were harvested with 0.05% trypsin, 2.21 mM ethylenediaminetetraacetic acid (EDTA), 1× from Corning (Corning, NY, USA), and suspended at a final density of 5 × 10^3 cells/well. Cells were seeded (180 μL/well) into 96-well plates. Initially, four different concentrations of each compound were added to find the compounds with the greatest antiproliferative efficacy in the MDA-MB-231 cell line (0, 1, 10, and 100 μM). Subsequently, […] different concentrations […] of each compound were added to the remaining cell lines mentioned above. After 68 h of incubation, 20 μL of the MTT solution (4 mg/mL) were added to each well, and the plates were incubated for 4 h. This allowed viable cells to biotransform the yellow-colored MTT into dark-blue formazan crystals. Subsequently, the medium was discarded, and 150 μL of DMSO were added to each well to dissolve the formazan crystals. The absorbance was determined at 590 nm using a DTX 880 multimode detector (Beckman Coulter life sciences, IN, USA). The IC50 ± SD concentrations were calculated from three experiments performed in triplicate/duplicate. The IC50 values were calculated from the cell survival percentages obtained for each compound tested at different concentrations. Similarly, the cytotoxicity of the test compounds was compared to the normal cell line (HMEC).

[1] = system: HMEC (human mammary epithelial cells); assay: MTT cytotoxicity assay, normal cells HMEC; type: cell-based; details: mean ± SEM of three independent experiments in triplicate
Description: as §1, §2

MDA-MB-231 cells [2] = assay: MTT cytotoxicity assay, MDA-MB-231; type: cell-based, human; details: MDA-MB-231, MTT; for IC50: Homo sapiens, mean ± SD of two independent experiments in triplicate, read-out: IC50 (cell survival)
Description: The synthesized chrysin derivatives were evaluated for cytotoxic efficacy in the human breast cancer cell line, MDA-MB-231, using the 3-(4,5-dimethylthiazol-2yl)-2,5-diphenyltetrazolium bromide (MTT) colorimetric assay and doxorubicin was used as a reference anticancer drug.
as §1
as §2, with “The IC50 ± SD concentrations were calculated from three experiments performed in triplicate/duplicate.” left out

BT-20 = assay: MTT cytotoxicity assay, BT-20; type: cell-based; details: Homo sapiens, mean ± SEM of three independent experiments in triplicate, read-out: IC50 Breast Cancer BT-20
Description: as §1, §2

HCT116 = assay: MTT cytotoxicity assay, HCT116; type: cell-based; details: Homo sapiens, HCT-116, mean ± SEM of three independent experiments in triplicate, read-out: IC50 Colon Cancer HCT116
Description: as §1, §2

MDA-MB-231 cells [3] = system: MDA-MB-231 cells; design: method as in PMID 30774307; details: cited from earlier work; for IC50: MDA-MB-231, MTT, data taken from ref 29, read-out: IC50 (cell survival)

| SMILES | IC50 (MDA-MB-231 cells [2]) | cytotoxic efficacy (in words) (MDA-MB-231 cells [2]) | other results |
| --- | --- | --- | --- |
| O=C(COc1cc(O)c2c(=O)cc(-c3ccccc3)oc2c1)N/N=C/c1ccccc1O [Compound 4a, (E,Z)-2-((5-Hydroxy-4-oxo-2-phenyl-4H-chromen-7-yl)oxy)-N’-(2-hydroxybenzylidene)acetohydrazide] | 6.8 ± 2.76 µM | – | IC50 (U-251): 8.63 ± 4.86 µM; IC50 [1]: 7.12 ± 4.55 µM; IC50 (BT-20): 4.41 ± 0.99 µM; IC50 (HCT116): 2.88 ± 0.09 µM |
| COc1ccc(/C=N/NC(=O)COc2cc(O)c3c(=O)cc(-c4ccccc4)oc3c2)cc1 [Compound 4f, (E,Z)-2-((5-Hydroxy-4-oxo-2-phenyl-4H-chromen-7-yl)oxy)-N’-(4-methoxybenzylidene)acetohydrazide] | – | – | IC50 (MDA-MB-231 cells [3]): 11.9 ± 3.5 µM; times more efficacious than 4e (MDA-MB-231 cells [3]; MDA-MB-231 cytotoxic efficacy relative to 4e): ~ 5 times |
| COc1ccccc1/C=N/NC(=O)COc1cc(O)c2c(=O)cc(-c3ccccc3)oc2c1 [Compound 4c, (E,Z)-2-((5-Hydroxy-4-oxo-2-phenyl-4H-chromen-7-yl)oxy)-N’-(2-methoxybenzylidene)acetohydrazide] | 23.3 ± 6.98 µM | – | – |
| O=C(COc1cc(O)c2c(=O)cc(-c3ccccc3)oc2c1)N/N=C/c1ccccn1 [Compound 4m, (E,Z)-2-((5-Hydroxy-4-oxo-2-phenyl-4H-chromen-7-yl)oxy)-N’-(pyridin-2-ylmethylene)acetohydrazide] | – | did not have significant cytotoxic efficacy | – |
| O=C(COc1cc(O)c2c(=O)cc(-c3ccccc3)oc2c1)N/N=C/c1c(O)cc(O)cc1O [Compound 4j, (E,Z)-2-((5-Hydroxy-4-oxo-2-phenyl-4H-chromen-7-yl)oxy)-N’-(2,4,6-trihydroxybenzylidene)acetohydrazide] | – | totally inactive | – |
| O=C(COc1cc(O)c2c(=O)cc(-c3ccccc3)oc2c1)N/N=C/c1c(O)ccc2ccccc12 [Compound 4n, (E,Z)-2-((5-Hydroxy-4-oxo-2-phenyl-4H-chromen-7-yl)oxy)-N’-((2-hydroxynaphthalen-1-yl)methylene)acetohydrazide] | – | inactive | – |
| O=C(COc1cc(O)c2c(=O)cc(-c3ccccc3)oc2c1)N/N=C/c1ccco1 [Compound 4k, (E,Z)-N’-(Furan-2-ylmethylene)-2-((5-hydroxy-4-oxo-2-phenyl-4H-chromen-7-yl)oxy)acetohydrazide] | 66.7 ± 11.1 µM | did not have significant cytotoxic efficacy | – |
| O=C(COc1cc(O)c2c(=O)cc(-c3ccccc3)oc2c1)N/N=C/c1cc([N+](=O)[O-])ccc1O [Compound 4o] | 7.9 ± 1.82 µM | – | IC50 (U-251): 11.3 ± 2.84 µM; IC50 [1]: 7.17 ± 4.1 µM; IC50 (BT-20): 7.25 ± 1.82 µM; IC50 (HCT116): 3.85 ± 0.34 µM |
| O=C(COc1cc(O)c2c(=O)cc(-c3ccccc3)oc2c1)N/N=C/c1ccc(O)cc1 [Compound 4e, (E,Z)-2-((5-Hydroxy-4-oxo-2-phenyl-4H-chromen-7-yl)oxy)-N’-(4-hydroxybenzylidene)acetohydrazide] | – | – | IC50 (MDA-MB-231 cells [3]): 54.8 ± 5.7 µM |
| COc1cccc2c1C(=O)c1c(O)c3c(c(O)c1C2=O)C[C@@](O)(C(=O)CO)C[C@@H]3O[C@H]1C[C@H](N)[C@H](O)[C@H](C)O1 [Doxorubicin, reference compound] | 0.2 ± 0.1 µM | – | – |
| O=C(COc1cc(O)c2c(=O)cc(-c3ccccc3)oc2c1)N/N=C/c1cccnc1 [Compound 4l, (E,Z)-2-((5-Hydroxy-4-oxo-2-phenyl-4H-chromen-7-yl)oxy)-N’-(pyridin-3-ylmethylene)acetohydrazide] | – | did not have significant cytotoxic efficacy | – |
| O=C(COc1cc(O)c2c(=O)cc(-c3ccccc3)oc2c1)N/N=C/c1ccccc1 [Compound 4b, (E,Z)-N’-Benzylidene-2-((5-hydroxy-4-oxo-2-phenyl-4H-chromen-7-yl)oxy)acetohydrazide] | 9.4 ± 3.38 µM | – | – |
